Reference: patent US4684664A, “Derivatives of β-(4-isocyano-1,2,3,4-diepoxycyclopentyl) acrylic acid” (Kureha Kagaku Kogyo Kabushiki Kaisha, priority 1984, dated 1987)
Converted amounts (≈) assume the structure as drawn.

What was measured:
Format in all cases: cell-based
[1] = test system: Staphylococcus aureus FDA 209PJc-1; assay: Antibacterial activity, agar-dilution MIC, organism No. 1; settings: Staphylococcus aureus, FDA209PJC1; Organism No. 1, bouillon-agar; read-out: Minimum Inhibitory Concentration
Text: (§1) Agar-dilution method was used for determination of the antibacterial activity and antifungal activity while using bouillon-agar culture medium, and the minimum inhibitory concentration of the specimen was expressed by μg/ml of the culture medium.

[2] = test system: Staphylococcus aureus Terajima; assay: Antibacterial activity, agar-dilution MIC, organism No. 2; settings: Staphylococcus aureus; Organism No. 2, bouillon-agar; read-out: Minimum Inhibitory Concentration
Text: as §1

[3] = test system: Staphylococcus aureus MS 353; assay: Antibacterial activity, agar-dilution MIC, organism No. 3; settings: Staphylococcus aureus, MS353; Organism No. 3, bouillon-agar; read-out: Minimum Inhibitory Concentration
Text: as §1

[4] = test system: Streptococcus pyogenes Cook; assay: Antibacterial activity, agar-dilution MIC, organism No. 4; settings: Streptococcus pyogenes; Organism No. 4, bouillon-agar; read-out: Minimum Inhibitory Concentration
Text: as §1

[5] = test system: Escherichia coli NIHJ-JC-2; assay: Antibacterial activity, agar-dilution MIC, organism No. 5; settings: Escherichia coli, NIHJJC2; Organism No. 5, bouillon-agar; read-out: Minimum Inhibitory Concentration
Text: as §1

[6] = test system: Escherichia coli K12 C600 IAM 1264; assay: Antibacterial activity, agar-dilution MIC, organism No. 6; settings: Escherichia coli, IAM1264; Organism No. 6, bouillon-agar; read-out: Minimum Inhibitory Concentration
Text: as §1

[7] = test system: Klebsiella pneumoniae PCI-602; assay: Antibacterial activity, agar-dilution MIC, organism No. 7; settings: Klebsiella pneumoniae, PCI602; Organism No. 7, bouillon-agar; read-out: Minimum Inhibitory Concentration
Text: as §1

[8] = test system: Salmonella typhimurium IID 971; assay: Antibacterial activity, agar-dilution MIC, organism No. 8; settings: Salmonella enterica; Organism No. 8, bouillon-agar; read-out: Minimum Inhibitory Concentration
Text: as §1

Salmonella typhi 901 = assay: Antibacterial activity, agar-dilution MIC, organism No. 9; settings: Salmonella enterica, TYPHI, read-out: Minimum Inhibitory Concentration
Text: as §1

[9] = test system: Salmonella paratyphi-A 1015; assay: Antibacterial activity, agar-dilution MIC, organism No. 10; settings: Salmonella enterica, PARATYPHI, read-out: Minimum Inhibitory Concentration
Text: as §1

[10] = test system: Salmonella shottmuelleri 8006; assay: Antibacterial activity, agar-dilution MIC, organism No. 11; settings: Salmonella, 8006; Organism No. 11, bouillon-agar; read-out: Minimum Inhibitory Concentration
Text: as §1

[11] = test system: Salmonella enteritidis G 14; assay: Antibacterial activity, agar-dilution MIC, organism No. 12; settings: Salmonella enterica, ENTERITIDIS; Organism No. 12, bouillon-agar; read-out: Minimum Inhibitory Concentration
Text: as §1

[12] = test system: Bacillus subtilis ATCC 6633; assay: Antibacterial activity, agar-dilution MIC, organism No. 14; settings: Bacillus subtilis, ATCC6633; Organism No. 14, bouillon-agar; read-out: Minimum Inhibitory Concentration
Text: as §1

[13] = test system: Pseudomonas aeruginosa IFO 3445; assay: Antibacterial activity, agar-dilution MIC, organism No. 15; settings: Pseudomonas aeruginosa, IFO3445; Organism No. 15, bouillon-agar; read-out: Minimum Inhibitory Concentration
Text: as §1

[14] = test system: Pseudomonas aeruginosa NCTC 10490; assay: Antibacterial activity, agar-dilution MIC, organism No. 16; settings: Pseudomonas aeruginosa, NCTC10490; Organism No. 16, bouillon-agar; read-out: Minimum Inhibitory Concentration
Text: as §1

[15] = test system: Pseudomonas aeruginosa PAO 1; assay: Antibacterial activity, agar-dilution MIC, organism No. 17; settings: Pseudomonas aeruginosa, PAO1; Organism No. 17, bouillon-agar; read-out: Minimum Inhibitory Concentration
Text: as §1

[16] = test system: Proteus morganii IFO 3848; assay: Antibacterial activity, agar-dilution MIC, organism No. 18; settings: Morganella morganii, IFO3848; Organism No. 18, bouillon-agar; read-out: Minimum Inhibitory Concentration
Text: as §1

[17] = test system: Proteus mirabilis IFO 3849; assay: Antibacterial activity, agar-dilution MIC, organism No. 19; settings: Proteus mirabilis, IFO3849; Organism No. 19, bouillon-agar; read-out: Minimum Inhibitory Concentration
Text: as §1

Proteus vulgaris OX-19 = assay: Antibacterial activity, agar-dilution MIC, organism No. 20; settings: Proteus vulgaris, OX19; Organism No. 20, bouillon-agar; read-out: Minimum Inhibitory Concentration
Text: as §1

Proteus vulgaris HX-19 = assay: Antibacterial activity, agar-dilution MIC, organism No. 21; settings: Proteus vulgaris, HX19; Organism No. 21, bouillon-agar; read-out: Minimum Inhibitory Concentration
Text: as §1

[18] = test system: Proteus rettgeri IFO 3850; assay: Antibacterial activity, agar-dilution MIC, organism No. 22; settings: Providencia rettgeri, IFO3850; Organism No. 22, bouillon-agar; read-out: Minimum Inhibitory Concentration
Text: as §1

[19] = test system: Enterobacter aerogenes ATCC 13048; assay: Antibacterial activity, agar-dilution MIC, organism No. 23; settings: Klebsiella aerogenes, ATCC13048; Organism No. 23, bouillon-agar; read-out: Minimum Inhibitory Concentration
Text: as §1

Enterobacter cloacae 963 = assay: Antibacterial activity, agar-dilution MIC, organism No. 24; settings: Enterobacter cloacae, 963; Organism No. 24, bouillon-agar; read-out: Minimum Inhibitory Concentration
Text: as §1

[20] = test system: Micrococcus luteus ATCC 9341; assay: Antibacterial activity, agar-dilution MIC, organism No. 25; settings: Micrococcus luteus, ATCC9341; Organism No. 25, bouillon-agar; read-out: Minimum Inhibitory Concentration
Text: as §1

[21] = test system: Streptococcus pyogenes IFO 3340; assay: Antibacterial activity, agar-dilution MIC, organism No. 26; settings: Streptococcus pyogenes, IFO3340; Organism No. 26, bouillon-agar; read-out: Minimum Inhibitory Concentration
Text: as §1

[22] = test system: Streptococcus faecium IFO 3826; assay: Antibacterial activity, agar-dilution MIC, organism No. 27; settings: Enterococcus faecium, IFO3826; Organism No. 27, bouillon-agar; read-out: Minimum Inhibitory Concentration
Text: as §1

[23] = test system: Mycoplasma pneumoniae IID817; assay: Antimycoplasmal activity, MIC by phenol red colour change, organism No. 28; settings: Mycoplasma, IID817; Organism No. 28, PPLO broth + 1% glucose, 37° C.; read-out: Minimum Inhibitory Concentration (MIC)
Experimental: Mycoplasma pneumoniae IID817 was used as the test microorganism in a culture medium prepared by adding 1% of glucose to "PPLO broth (manufactured by Difco Co.) liquid culture medium" at 37° C. with phenol red as an indicator, thereby culturing the test microorganism.

[24] = test system: Candida albicans IAM 4905; assay: Antifungal activity, agar-dilution MIC, organism No. 29; settings: Candida albicans, IAM4905; Organism No. 29, bouillon-agar; read-out: Minimum Inhibitory Concentration
Text: as §1

[25] = test system: Aspergillus niger IFO 6342; assay: Antifungal activity, agar-dilution MIC, organism No. 30; settings: Aspergillus niger, IFO6342; Organism No. 30, bouillon-agar; read-out: Minimum Inhibitory Concentration
Text: as §1

Structure (SMILES) | MIC [1] [µg/mL] | MIC [2] [µg/mL] | MIC [3] [µg/mL] | MIC [4] [µg/mL] | MIC [5] [µg/mL] | MIC [6] [µg/mL] | MIC [7] [µg/mL] | MIC [8] [µg/mL] | MIC (Salmonella typhi 901) [µg/mL] | MIC [9] [µg/mL] | MIC [10] [µg/mL] | MIC [11] [µg/mL] | MIC [12] [µg/mL] | MIC [13] [µg/mL] | MIC [14] [µg/mL] | MIC [15] [µg/mL] | MIC [16] [µg/mL] | MIC [17] [µg/mL] | MIC (Proteus vulgaris OX-19) [µg/mL] | MIC (Proteus vulgaris HX-19) [µg/mL] | also measured
[C-]#[N+]C12CC3(/C=C/C(=O)Nc4ccccc4Cl)OC3C1O2 (centres unmarked) [compound 42] | 0.39 (≈ 1.29 µM) | 1.56 (≈ 5.15 µM) | 0.39 (≈ 1.29 µM) | > 200 | > 200 | > 200 | 0.78 (≈ 2.58 µM) | 25 (≈ 82.6 µM) | 12.5 (≈ 41.3 µM) | 6.25 (≈ 20.6 µM) | 3.13 (≈ 10.3 µM) | 25 (≈ 82.6 µM) | 6.25 (≈ 20.6 µM) | > 200 | > 200 | > 200 | 3.13 (≈ 10.3 µM) | > 200 | 3.13 (≈ 10.3 µM) | 0.1 (≈ 0.33 µM) | MIC [18]: > 200 µg/mL; MIC [19]: > 200 µg/mL; MIC (Enterobacter cloacae 963): > 200 µg/mL; MIC [20]: < 0.05 µg/mL; MIC [21]: 1.56 µg/mL (≈ 5.15 µM); MIC [22]: 25 µg/mL (≈ 82.6 µM); MIC [23]: < 0.2 µg/mL; MIC [24]: 1.56 µg/mL (≈ 5.15 µM); MIC [25]: 3.13 µg/mL (≈ 10.3 µM)
[C-]#[N+]C12CC3(/C=C/C(=O)Nc4ccc(Cl)cc4)OC3C1O2 (centres unmarked) [compound 40] | < 0.05 | 0.1 (≈ 0.33 µM) | < 0.05 | 200 (≈ 661 µM) | > 200 | > 200 | < 0.05 | 12.5 (≈ 41.3 µM) | 0.39 (≈ 1.29 µM) | 0.1 (≈ 0.33 µM) | 0.1 (≈ 0.33 µM) | 3.13 (≈ 10.3 µM) | 6.25 (≈ 20.6 µM) | > 200 | > 200 | > 200 | 3.13 (≈ 10.3 µM) | > 200 | 0.1 (≈ 0.33 µM) | < 0.05 | MIC [18]: 6.25 µg/mL (≈ 20.6 µM); MIC [19]: > 200 µg/mL; MIC (Enterobacter cloacae 963): 200 µg/mL (≈ 661 µM); MIC [20]: < 0.05 µg/mL; MIC [21]: 0.39 µg/mL (≈ 1.29 µM); MIC [22]: > 200 µg/mL; MIC [23]: < 0.2 µg/mL; MIC [24]: 0.39 µg/mL (≈ 1.29 µM); MIC [25]: 1.56 µg/mL (≈ 5.15 µM)
[C-]#[N+]C12CC3(/C=C/C(=O)NCc4ccccc4)OC3C1O2 (centres unmarked) [Compound No. 24] | 0.78 (≈ 2.76 µM) | 1.56 (≈ 5.53 µM) | 0.78 (≈ 2.76 µM) | 6.25 (≈ 22.1 µM) | 12.5 (≈ 44.3 µM) | 6.25 (≈ 22.1 µM) | 1.56 (≈ 5.53 µM) | 6.25 (≈ 22.1 µM) | 3.13 (≈ 11.1 µM) | 1.56 (≈ 5.53 µM) | 0.78 (≈ 2.76 µM) | 1.56 (≈ 5.53 µM) | 12.5 (≈ 44.3 µM) | > 100 | > 100 | > 100 | 1.56 (≈ 5.53 µM) | 12.5 (≈ 44.3 µM) | 0.78 (≈ 2.76 µM) | < 0.05 | MIC [18]: 3.13 µg/mL (≈ 11.1 µM); MIC [19]: > 100 µg/mL; MIC (Enterobacter cloacae 963): > 100 µg/mL; MIC [20]: < 0.05 µg/mL; MIC [21]: 6.25 µg/mL (≈ 22.1 µM); MIC [22]: 1.56 µg/mL (≈ 5.53 µM); MIC [23]: < 0.2 µg/mL; MIC [24]: 0.2 µg/mL (≈ 0.708 µM); MIC [25]: 1.56 µg/mL (≈ 5.53 µM)
[C-]#[N+]C12CC3(/C=C/C(=O)Nc4ccccc4C)OC3C1O2 (centres unmarked) [compound 39] | 0.78 (≈ 2.76 µM) | 3.13 (≈ 11.1 µM) | 1.56 (≈ 5.53 µM) | 100 (≈ 354 µM) | > 200 | > 200 | 1.56 (≈ 5.53 µM) | > 200 | 25 (≈ 88.6 µM) | 12.5 (≈ 44.3 µM) | 3.13 (≈ 11.1 µM) | 50 (≈ 177 µM) | > 200 | > 200 | > 200 | > 200 | 100 (≈ 354 µM) | > 200 | 6.25 (≈ 22.1 µM) | < 0.05 | MIC [18]: > 200 µg/mL; MIC [19]: > 200 µg/mL; MIC (Enterobacter cloacae 963): 200 µg/mL (≈ 708 µM); MIC [20]: < 0.05 µg/mL; MIC [21]: 25 µg/mL (≈ 88.6 µM); MIC [22]: 200 µg/mL (≈ 708 µM); MIC [23]: < 0.2 µg/mL; MIC [24]: 0.39 µg/mL (≈ 1.38 µM); MIC [25]: 1.56 µg/mL (≈ 5.53 µM)
